Measured values reported in patent publication US12723023B2, “Ionizable cationic lipids for RNA delivery” (Arcturus Therapeutics, Inc., priority 2021, dated 2026).

Legend:
hEPO = hEPO mRNA expression evaluation (hEPO-LNPs, serum hEPO by ELISA); assay type: in vivo, Balb/c mice; settings: serum after 6 hr; for EPO exprssn (ng/mL) 0.03 mpk: 0.03 mpk hEPO-LNP intravenously; for EPO exprssn (ng/mL) 0.1 mpk: 0.1 mpk hEPO-LNP intravenously
Description: Lipid formulations comprising a hEPO mRNA below were evaluated for their ability to express hEPO in vivo according to the protocol of this example. All animal experiments were conducted using institutionally-approved protocols (IACUC). In this protocol, female Balb/c mice at least 6-8 weeks of age were purchased from Charles River Laboratory. The mice were intravenously injected with hEPO-LNPs via the tail vein with one of two dose levels of hEPO (0.1 and 0.03 mg/kg). After 6 hr, blood was collected with serum separation tubes, and the serum was isolated by centrifugation. Serum hEPO levels were then measured using an ELISA assay (Human Erythropoietin Quantikine IVD ELISA Kit, R&D Systems, Minneapolis, MD).

Mouse plasma stability = assay type: in vitro ADME, CD-1 mouse; settings: 1 μM lipid
Description: Lipid stock solution was prepared by dissolution of the lipid in isopropanol at the concentration of 5 mg/mL. A requisite volume of the lipid-isopropanol solution was then diluted to 100 μM concentration at a total volume of 1.0 mL with in 50:50 (v/v) ethanol/water. Ten microliters of this 100 μM solution was spiked into 1.0 mL of mouse plasma (BioIVT, Cat. No.: MSE00PLNHUNN, CD-1 mouse, anticoagulant: sodium heparin, not filtered) that was pre-warmed to 37° C. and was stirred at 50 rpm with a magnetic stir bar. The starting concentration of lipids in plasma was thus 1 μM. At time points 0, 15, 30, 45, 60 and 120 min, 0.1 mL of the plasma was withdrawn from the reaction mixture and the protein was precipitated by adding 0.9 mL of ice-cold 4:1 (v/v) acetonitrile/methanol with 1 μg/mL of a selected internal standard lipid added. After filtration through a 0.45 micron 96-well filtering plate, the filtrates were analyzed by LC-MS (Thermo Fisher's Vanquish UHPLC-LTQ XL linear ion trap Mass Spectrometer); Waters XBridge BEH Shield RP18 2.5 micron (2.1×100 mm) column with its matching guard column. Mobile phase A was 0.1% formic acid in water, and mobile phase B was 0.1% formic acid in 1:1 (v/v) acetonitrile/methanol. Flow rate was 0.5 ml/min. Elution gradient was: Time 0-1 min: 10% B; 1-6 min: 10%-95% B; 6-8.5 min: 95% B; 8.5-9 min: 95%-10% B; 9-10 min: 10% B. Mass spectrometry was in positive scanning mode from 600-1100 m/z. The peak of the molecular ion of the lipids was integrated in the extracted ion chromatography (XIC) using Xcalibur software (Thermo Fisher). The relative peak area compared to T=0, after normalization by the peak area of the internal standard, was used as the percentage of the lipid remaining at each time point. T1/2 values were calculated using the first-order decay model.

[1] = In vivo biodegradability assay (lipid concentration in mouse liver by LC-MS); design: species or system mice; settings: BLOQ: below level of quantification; for In vivo degradability (ng tissue) at 48 h 0.1 mpk: Table 1, 0.1 mpk; for In vivo degradability (ng/tissue) at 48 h 0.1 mpk: Table 2, 0.1 mpk
Description: In vivo biodegradability assay was performed to assess the biodegradability of lipids in the LNP. Briefly, mice were injected with either 0.1 or 0.03 mg/Kg dose and after 24 or 48 hours mice livers were collected. To measure the concentration of lipids in the mouse liver, liver samples were homogenized in appropriate buffer in 1-10 dilution and mixed with the same amount of stabilized plasma. The samples were then mixed with organic solvents spiked with internal standard to precipitate proteins. After centrifugation, supernatant was diluted further with organic solvent before sample analysis by LC-MS. In LC-MS analysis, positive electrospray ionization was used, and multiple reaction monitoring (MRM) parameters were set up to specifically target the lipid analyte and internal standard. Calibration standards were prepared in stabilized plasma and mixed with same amount of homogenization buffer before protein precipitation. Quality control samples with known amounts of lipid was prepared in blank liver homogenate to monitor the precision and accuracy of the assay.

Row | Plasma half life % remaining after 2 h (Mouse plasma stability; Table 1, 37° C.) | Plasma half life % remaining after 2 h (Mouse plasma stability; Table 2, 37° C.) | In vivo degradability (ng/tissue) at 48 h 0.03 mpk ([1]; Table 1, 0.03 mpk) | In vivo degradability (ng tissue) at 48 h 0.1 mpk [1] | In vivo degradability (ng/tissue) at 48 h 0.03 mpk ([1]; Table 2, 0.03 mpk) | In vivo degradability (ng/tissue) at 48 h 0.1 mpk [1] | SMILES | EPO exprssn (ng/mL) 0.03 mpk (hEPO; Table 1) | EPO exprssn (ng/mL) 0.1 mpk (hEPO; Table 1) | EPO exprssn (ng/mL) 0.1 mpk (hEPO; Table 2)
1 |  | 100% |  |  | BLOQ | BLOQ | CCCCCCCC(=O)OCC(C)(COC(=O)CCCCCCC)COC(=O)CCN(CCC(=O)OCC(C)(COC(=O)CCCCCCC)COC(=O)CCCCCCC)C(=O)SCCCN(C)C [LIPID 24] |  |  | 
2 | 40% | 40% | BLOQ | BLOQ | BLOQ | BLOQ | CCCCCCCCC(=O)OCC(COC(=O)CCCCCCCC)OC(=O)CCC(CCC(=O)OC(COC(=O)CCCCCCCC)COC(=O)CCCCCCCC)OC(=O)CCCN(C)C [LIPID 5, bis(1,3-bis(Nonanoyloxy)propan-2-yl) 4-((4-(dimethylamino)butanoyl)oxy)heptanedioate] |  |  | 
3 |  | 100% |  |  | BLOQ | BLOQ | CN(C)CCCSC(=O)N(CCCC(=O)OC(COC(=O)C1CCC2CCCC2C1)COC(=O)C1CCC2CCCC2C1)CCCC(=O)OC(COC(=O)C1CCC2CCCC2C1)COC(=O)C1CCC2CCCC2C1 (centres unmarked) [LIPID 30, ((4,4′-((((3-(dimethylamino)propyl)thio)carbonyl)azanediyl)bis(butanoyl))bis(oxy))bis(propane-2,1,3-triyl) tetrakis(octahydro-1H-indene-5-carboxylate)] |  |  | 
4 | 13% | 13% | BLOQ | BLOQ | BLOQ | BLOQ | CCCCCCCC(=O)OCC(COC(=O)CCCCCCC)OC(=O)CCCC(CCCC(=O)OC(COC(=O)CCCCCCC)COC(=O)CCCCCCC)SC(=O)CCCN(C)C [LIPID 4, bis(1,3-bis(Octanoyloxy)propan-2-yl) 5-((4-(dimethylamino)butanoyl)thio)nonanedioate] |  |  | 

The remaining lines, values behind:

Row | SMILES | Plasma half life % remaining after 2 h (Mouse plasma stability; Table 1, 37° C.) | Plasma half life % remaining after 2 h (Mouse plasma stability; Table 2, 37° C.) | In vivo degradability (ng/tissue) at 48 h 0.03 mpk ([1]; Table 1, 0.03 mpk) | In vivo degradability (ng tissue) at 48 h 0.1 mpk [1] | In vivo degradability (ng/tissue) at 48 h 0.03 mpk ([1]; Table 2, 0.03 mpk) | In vivo degradability (ng/tissue) at 48 h 0.1 mpk [1] | EPO exprssn (ng/mL) 0.03 mpk (hEPO; Table 1) | EPO exprssn (ng/mL) 0.1 mpk (hEPO; Table 1) | EPO exprssn (ng/mL) 0.1 mpk (hEPO; Table 2)
5 | CCC1CCC(C(=O)OCC(COC(=O)C2CCC(CC)CC2)OC(=O)CCCN(CCCC(=O)OC(COC(=O)C2CCC(CC)CC2)COC(=O)C2CCC(CC)CC2)C(=O)SCCCN(C)C)CC1 (centres unmarked) [LIPID 16, ((4,4′-((((3-(Dimethylamino)propyl)thio)carbonyl)azanediyl)bis(butanoyl))bis(oxy))bis(propane-2,1,3-triyl) tetrakis(4-ethylcyclohexane-1-carboxylate)] | 40% | 40% | <340 ng/tissue | <340 ng tissue | <340 ng/tissue | <340 ng/tissue | 2088 ng/mL | 6358 ng/mL | 2088 ng/mL
6 | CC(CC1CCCCC1)C(=O)OCC(COC(=O)C(C)CC1CCCCC1)OC(=O)CCCN(CCCC(=O)OC(COC(=O)C(C)CC1CCCCC1)COC(=O)C(C)CC1CCCCC1)C(=O)SCCCN(C)C (centres unmarked) [LIPID 17, ((4,4′-((((3-(Dimethylamino)propyl)thio)carbonyl)-azanediyl)bis(butanoyl))bis(oxy))bis(propane-2,1,3-triyl) tetrakis(3-cyclohexyl-2-methylpropanoate)] |  | 100% | BLOQ | BLOQ | BLOQ | BLOQ | 1082 ng/mL | 1555 ng/mL | 1082 ng/mL
7 | CCCCCCCCC(=O)OCC(COC(=O)CCCCCCCC)COC(=O)CCN(CCC(=O)OCC(COC(=O)CCCCCCCC)COC(=O)CCCCCCCC)C(=O)SCCCN(C)C [LIPID 14] | 116% | 100% | <340 ng/tissue | <340 ng tissue | <340 ng/tissue | <340 ng/tissue |  |  | 
8 | CN(C)CCCSC(=O)N(CCCC(=O)OC(COC(=O)CCCC1CCCCC1)COC(=O)CCCC1CCCCC1)CCCC(=O)OC(COC(=O)CCCC1CCCCC1)COC(=O)CCCC1CCCCC1 [LIPID 11, ((4,4′-((((3-(Dimethylamino)propyl)thio)carbonyl)azanediyl)bis(butanoyl))bis(oxy))bis(propane-2,1,3-triyl) tetrakis(4-cyclohexylbutanoate)] | 40% | 40% | BLOQ | BLOQ | BLOQ | BLOQ |  |  | 
9 | CCCCCCCCC(=O)OCC(COC(=O)CCCCCCCC)OC(=O)CCCC(CCCC(=O)OC(COC(=O)CCCCCCCC)COC(=O)CCCCCCCC)OC(=O)CCCN(C)C.Cl [LIPID 3, bis(1,3-bis(Nonanoyloxy)propan-2-yl) 5-((4-(dimethylamino)butanoyl)oxy)nonanedioate HCl Salt] | 15% | 15% | BLOQ | BLOQ | BLOQ | BLOQ |  |  | 
